Measurements published in patent EP4563579A1, “MACROCYCLIC EGFR INHIBITOR, AND PREPARATION METHOD THEREFOR AND PHARMACEUTICAL USE THEREOF” (Abbisko Therapeutics Co., Ltd., priority 2022, dated 2024).

Tests used:
Type in all cases: cell-based
[1] = system: Ba/F3 EGFR-L858R-C797S (LC); assay: Cell proliferation assay (CellTiter-Glo), Ba/F3 LC; settings: Mus musculus, BaF3; Ba/F3 EGFR-L858R-C797S cells, 72 hour incubation, CTG readout
Experimental: (§1) • DMEM Medium (Gibco, Cat#11965118) • RPMI1640 Medium (Gibco, Cat#11875119) • Fetal Bovine Serum (FBS) (GBICO, Cat#10099-141) • CellTiter-Glo® Luminescent Cell Viability Assay Kit (Promega, Cat#G7572) 96-well, Black, Clear Flat Bottom Plate (Corning®, Cat# 3603)
(§2) • SpectraMax Multimode Microplate Reader MD, 2104-0010A; • CO2 Incubator, Thermo Scientific 3100 Series; • Biosafety Cabinet, Thermo Scientific, 1300 Series A2; • Inverted Microscope, Olympus, CKX41SF; • Siemens Refrigerator, KK25E76TI.
(§3) • 1. Cell Culture and Inoculation: • (1) Harvest cells in a logarithmic growth phase and count the cells using a […]. Test cell viability using a trypan blue exclusion method to ensure that cell viability is above 90%. • (2) Adjust the cell concentration to desired final density; and add 90 µL of cell suspension to a 96-well plate. • (3) Incubate the cells overnight at 37°C, under 5% CO2 and 95% humidity in the 96-well plate. • 2. T0 Reference Data: • (1) Add 10 µL PBS to each well of the T0 plate containing cells. • (2) Thaw the CTG reagent and equilibrate the plate to room temperature for 30 minutes. • (3) Add an equal volume of CTG solution to each well. • (4) Lyse cells by shaking on an orbital shaker for 5 minutes. • (5) Leave the plate at room temperature for 20 minutes to stabilize the luminescence signal. • (6) Read the T0 […]. • 3. Compound Dilution and Addition • (1) Add a corresponding volume of DMSO to a corresponding compound powder according to the compound information sheet to prepare a 10 mM stock solution. • (2) Prepare 1000-fold and 3.16-fold diluted compound solutions. • (3) Dilute the 1000× diluted compound solution 100-fold with PBS to prepare a 10-fold compound solution, with a maximum concentration of 10 µM, nine concentrations and 3.16-fold dilution. Then add 10 µL of the drug solution concentration to individual wells of the 96-well plate seeded with cells. Test each compound concentration in triplicate wells, and the final DMSO concentration is 0.1%. • (4) Incubate the cells in the 96-well plate containing the drug compounds at 37°C, under 5% CO2, and 95% humidity for an additional 72 hour period prior to performing the CTG analysis. • 4. Fluorescence Signal Reading • (1) Thaw the CTG reagent and equilibrate the plate to room temperature for 30 minutes. • (2) Add an equal volume of CTG solution to each well. • (3) Lyse cells by shaking on an orbital shaker for 5 minutes. • (4) Leave the plate at room temperature for 20 minutes to stabilize the […]. • (5) Read fluorescence value. • 5. Data Processing
(§4) Analyze the data by using GraphPad Prism 7.0 software, and use Non-linear S-curve regression to fit the dose-response curves, to calculate the IC50 values (in nM). The specific experiment results are presented in Table 1: [formula] Table 1: Biology Test Results

A431 WT = assay: Cell proliferation assay (CellTiter-Glo), A431 WT; settings: Homo sapiens, A-431; A431 WT cells, 72 hour incubation, CTG readout
Experimental: as §1, §2, §3, §4

[2] = system: Ba/F3 EGFR-DEL19-T790M-C797S (DTC); assay: Cell proliferation assay (CellTiter-Glo), Ba/F3 DTC; settings: Ba/F3 EGFR-DEL19-T790M-C797S cells, 72 hour incubation, CTG readout; read-out: IC50 BaF3 DTC
Experimental: as §1, §2, §3, §4

[3] = system: Ba/F3 EGFR-DEL19-C797S (DC); assay: Cell proliferation assay (CellTiter-Glo), Ba/F3 DC; settings: Mus musculus, BaF3; Ba/F3 EGFR-DEL19-C797S cells, 72 hour incubation, CTG readout
Experimental: as §1, §2, §3, §4

[4] = system: Ba/F3 EGFR-L858R-T790M-C797S (LTC); assay: Cell proliferation assay (CellTiter-Glo), Ba/F3 LTC; settings: Mus musculus, BaF3; Ba/F3 EGFR-L858R-T790M-C797S cells, 72 hour incubation, CTG readout
Experimental: as §1, §2, §3, §4

Cn1ncc2c1OCC1(CCCC1)Cn1nc(N3CC[C@@H](CS(C)(=O)=O)C3)c3cnc(cc31)Nc1ccnc-2n1 [Example 27, (R)-1'-methyl-3'-(3-((methylsulfonyl)methyl)pyrrolidin-1-yl)spiro(cyclopentane-1 ,6'-8-oxa-3-aza-4(6,1)-pyrazolo[4,3-c]pyridina-2(2,4)-pyrimidina-1(4,5)-pyrazolacyclooctaphane)]
IC50 [1]: 13.4 nM | IC50 (A431 WT): 587 nM | IC50 [2]: 1 nM | IC50 [3]: 1.1 nM | IC50 [4]: 5.2 nM

Cn1ncc2c1OCC1(CCCC1)Cn1nc(N3CCC[C@@H](CS(C)(=O)=O)C3)c3cnc(cc31)Nc1ccnc-2n1 [Example 28, (R)-1'-methyl-3'-(3-((methylsulfonyl)methyl)piperidin-1-yl)spiro(cyclopentane-1, 6'-8-oxa-3-aza-4(6,1)-pyrazolo[4,3-c]pyridina-2(2,4)-pyrimidina-1(4,5)-pyrazolacyclooctaphane)]
IC50 [1]: 45.7 nM | IC50 (A431 WT): 682 nM | IC50 [2]: 12.4 nM | IC50 [3]: 12.8 nM | IC50 [4]: 86.9 nM

Cn1ncc2c1OCC1(CCCC1)Cn1nc(N3CC[C@@H](CS(=O)(=O)C4CC4)C3)c3cnc(cc31)Nc1ccnc-2n1 [Example 30]
IC50 [1]: 11.8 nM | IC50 (A431 WT): 744 nM | IC50 [2]: 2.4 nM | IC50 [3]: 2.5 nM | IC50 [4]: 5.8 nM

CC(C)S(=O)(=O)C[C@@H]1CCN(c2nn3c4cc(ncc24)Nc2ccnc(n2)-c2cnn(C)c2OCC2(CCCC2)C3)C1 [Example 31, (R)-3'-(3-((isopropylsulfonyl)methyl)pyrrolidin-1-yl)-1 '-methylspiro(cyclopentane-1,6'-8-oxa-3-aza-4(6,1)-pyrazolo[4,3-c]pyridina-2(2,4)-pyrimidina-1(4,5)-pyrazolacyclooctaphane)]
IC50 [1]: 10.8 nM | IC50 (A431 WT): 366 nM | IC50 [2]: 4.8 nM | IC50 [3]: 3.5 nM | IC50 [4]: 4.3 nM

Cn1ncc2c1OCC1(CCCCC1)Cn1nc(N3CC[C@@H](CS(C)(=O)=O)C3)c3cnc(cc31)Nc1ccnc-2n1 [Example 32, (R)-1'-methyl-3'-(3-((methylsulfonyl)methyl)pyrrolidin-1-yl)spiro(cyclohexane-1, 6'-8-oxa-3-aza-4(6,1)-pyrazolo[4,3-c]pyridina-2(2,4)-pyrimidina-1(4,5)-pyrazolacyclooctaphane)]
IC50 [1]: 14.9 nM | IC50 (A431 WT): 543 nM | IC50 [2]: 10.5 nM | IC50 [3]: 5.1 nM | IC50 [4]: 12.1 nM

Cn1ncc2c1OCC1(CCCCC1)Cn1nc(N3CC[C@H](CS(C)(=O)=O)C3)c3cnc(cc31)Nc1ccnc-2n1 [Example 36, (S)-1'-methyl-3'-(3-((methylsulfonyl)methyl)pyrrolidin-1-yl)spiro(cyclohexane-1,6' -8-oxa-3-aza-4(6,1)-pyrazolo[4,3-c]pyridina-2(2,4)-pyrimidina-1(4,5)-pyrazolacyclooctaphane)]
IC50 [1]: 5.1 nM | IC50 (A431 WT): 614 nM | IC50 [2]: 1.5 nM | IC50 [3]: 2.5 nM | IC50 [4]: 2 nM

CCCCS(=O)(=O)C[C@H]1CCN(c2nn3c4cc(ncc24)Nc2ccnc(n2)-c2cnn(C)c2OCC2(CCCC2)C3)C1 [Example 43, (S)-3'-(3-((butylsulfonyl)methyl)pyrrolidin-1-yl)-1'-me thylspiro(cyclopentane-1,6' -8-oxa-3-aza-4(6,1)-pyrazolo[4,3-c]pyridina-2(2,4)-pyrimidina-1(4,5)-pyrazolacyclooctaphane)]
IC50 [1]: 2.9 nM | IC50 (A431 WT): 700 nM | IC50 [2]: 3.6 nM | IC50 [3]: 5 nM | IC50 [4]: 1.3 nM

Cn1ncc2c1OCC1(CCCC1)Cn1nc(N3CC[C@H](CS(=O)(=O)C4CCC4)C3)c3cnc(cc31)Nc1ccnc-2n1 [Example 44, (S)-3'-(3-((cyclobutylsulfonyl)methyl)pyrrolidin-1-yl)-1 '-methylspiro(cyclopentane-1,6'-8-oxa-3-aza-4(6,1)-pyrazolo[4,3-c]pyridina-2(2,4)-pyrimidina-1(4,5)-pyrazolacyclooctaphane)]
IC50 [1]: 5.3 nM | IC50 (A431 WT): 1130 nM | IC50 [2]: 4 nM | IC50 [3]: 10.1 nM | IC50 [4]: 1.9 nM

Cn1ncc2c1OCC1(CCCC1)Cn1nc(N3CC[C@H](CS(=O)(=O)C4CCCC4)C3)c3cnc(cc31)Nc1ccnc-2n1 [Example 45, (S)-3'-(3-((cyclopentylsulfonyl)methyl)pyrrolidin-1-yl)-1'-methylspiro(cyclopentane-1,6'-8-oxa-3-aza-4(6,1)-pyrazolo[4,3-c]pyridina-2(2, 4)-pyrimidina-1(4,5)-pyrazolacyclooctaphane)]
IC50 [1]: 2.9 nM | IC50 (A431 WT): 738 nM | IC50 [2]: 3.9 nM | IC50 [3]: 4 nM | IC50 [4]: 1.1 nM

Cn1ncc2c1OCC1(CCCC1)Cn1nc(N3CC[C@@H](NS(C)(=O)=O)C3)c3cnc(cc31)Nc1ccnc-2n1 [Example 48, (R)-N-(1-(1'-methylspiro(cyclopentane-1,6'-8-oxa-3-aza-4(6,1)-pyrazolo[4,3-c]pyridina-2(2,4)-pyrimidina-1(4,5)-pyrazolacyclooctaphane)-3'-yl)pyrrolidin-3-yl)metha nesulfonamide]
IC50 [1]: 7.6 nM | IC50 (A431 WT): 357 nM | IC50 [2]: 2 nM | IC50 [3]: 2.5 nM | IC50 [4]: 4.5 nM

COC(=O)N[C@H]1CCN(c2nn3c4cc(ncc24)Nc2ccnc(n2)-c2cnn(C)c2OCC2(CCCC2)C3)C1 [Example 55, Methyl (S)-(1-(1'-methylspiro(cyclopentane-1,6'-8-oxa-3-aza-4(6,1)-pyrazolo[4,3-c]pyridina-2(2,4)-pyrimidina-1(4,5)-pyrazolacyclooctaphane)-3'-yl)pyrrolidin-3-yl)carbamate]
IC50 [1]: 33.1 nM | IC50 (A431 WT): 329 nM | IC50 [2]: 8.5 nM | IC50 [3]: 12.1 nM | IC50 [4]: 12 nM

CCS(=O)(=O)N[C@H]1CCN(c2nn3c4cc(ncc24)Nc2ccnc(n2)-c2cnn(C)c2OCC2(CCCC2)C3)C1 [Example 57]
IC50 [1]: 22.8 nM | IC50 (A431 WT): 251 nM | IC50 [2]: 3.1 nM | IC50 [3]: 5.3 nM | IC50 [4]: 7.9 nM

Cn1ncc2c1OCC1(CCCC1)Cn1nc(N3CC[C@@H](NS(=O)(=O)C4CC4)C3)c3cnc(cc31)Nc1ccnc-2n1 [Example 58, (R)-N-(1-(1'-methylspiro(cyclopentane-1,6'-8-oxa-3-aza-4(6,1)-pyrazolo[4,3-c]pyridina-2(2,4)-pyrimidina-1(4,5) -pyrazolacyclooctaphane)-3' -yl)pyrrolidin-3-yl)cyclopro panesulfonamide]
IC50 [1]: 6.9 nM | IC50 (A431 WT): 911 nM | IC50 [2]: 2.8 nM | IC50 [3]: 7.2 nM | IC50 [4]: 2.1 nM

CC#Cc1nn2c3cc(ncc13)Nc1ccnc(n1)-c1cnn(C)c1OCC[C@@H]2C [Example A1, (S)-1^1,5-dimethyl-4^3-(prop-1-yn-1-yl)-1^1H,4^1H-8-oxa-3-aza-4(6,1)-pyrazolo[4,3-c]py ridina-2(2,4)-pyrimidina-1(4,5)-pyrazolacyclooctaphane]
IC50 [1]: 299 nM | IC50 (A431 WT): 2700 nM | IC50 [2]: 64.9 nM | IC50 [3]: 40.9 nM | IC50 [4]: 262 nM

C[C@H]1CCOc2c(cnn2C)-c2nccc(n2)Nc2cc3c(cn2)c(N2CC(CS(C)(=O)=O)C2)nn31 [Example A4, (S)-1^1,5-dimethyl-4^3-(3-((methylsulfonyl)methyl)azetidin-1-yl)-1^1H,4^1H-8-oxa-3-az a-4(6,1)-pyrazolo[4,3-c]pyri dina-2(2,4)-pyrimidina-1(4, 5)-pyrazolacyclooctaphane]
IC50 [1]: 380 nM | IC50 (A431 WT): 2680 nM | IC50 [2]: 244 nM | IC50 [3]: 176 nM | IC50 [4]: 186 nM
